Assay results as given in patent publication US6531505B2, “Immunosuppressive agents” (priority 1998, dated 2003).
“Also recorded” adds a separate entry of the source.

How the values were obtained:
[1] = test system: CCl4-induced liver injury in mice; test: Hepatoprotection studies on CCl4-induced liver injury in mice; assay type: in vivo, ICR male mice; conditions: for ALT / AST: serum, 20 hours after CCl4
Protocol: ICR male mice (8 mice for each group) were used. Astilbin (50 or 100 mg/kg) and RSG ext (100 or 200 mg/kg) were administered orally for 6 days. One hour after final administration, mice were intraperitoneally injected with 0.2% CCl4 in olive oil (0.2 ml/20 g of body weight).
For the control studies, only CCl4 injected mice without drug administration were used.
Then, 20 hours after administration of CCl4, the blood samples were collected, and used for determining the serum ALT and the serum AST activities by the conventional methods.

[2] = test system: HC isolated from normal mice, treated with CCl4; test: Hepatoprotection studies on CCl4-induced hepatocyte damage; assay type: cell-based; conditions: 5×10^−6 to 1×10^−4 g/ml, HC treated 2 hours, then 0.2% CCl4 1 hour
Protocol: HC was isolated from the normal mice used in Experiment 8 above. The cells were treated for 2 hours with astilbin or RSG ext, then washed twice with WE medium solution. After washing, 0.1 ml of 0.2% CCl4 in olive oil was added to the cells, and the resulting cells were incubated for 1 hour. The ALT activity in the supernatants was determined by the conventional methods.
HC isolated from the normal mice was used. The cells were treated for 2 hours with test compounds. After treatment, the cells were washed twice, and incubated for 1 hour after addition of 0.1 ml of 0.2% CCl4. The obtained supernatants were collected for assaying the ALT activity by the conventional methods. For the control studies, non-treated HC with test compounds were used.

[3] = test system: NPC isolated from liver injury mice; test: ALT-releasing assay, co-culture of HC with pre-treated NPC; assay type: cell-based; conditions: for ALT activity in supernatants of HC co-cultured with pre-treated NPC: Example 5 Experiment 2, NPC incubated with test compound 1 hour, co-culture 3 hours, FIG. 6
Protocol: HC and NPC were isolated from mice 12 hours after elicitation of liver injury. Thus obtained HC was suspended in WE medium, and was seeded onto 96-wells microplates (2×10^4 cells/0.2 ml/wells), and incubated at 37° C. for 5 hours with 5% (v/v) CO2 in air. After incubation, the HC was washed twice with WE medium and co-cultured with NPC of 8×10^4 cells for 3 hours. NPC was pre-incubated for 1 hour at 37° C. with various concentration of astilbin or RSG ext. After co-culture, the supernatants were collected for assaying ALT and AST activities by the conventional methods.
HC and NPC were isolated from liver injury mice 12 hours after elicitation, as the same manner described in Experiment 4. Thus the HC was suspended in WE medium, and was seeded onto 96-wells microplates (2×10^4 cells/0.2 ml/wells), and incubated at 37° C. for 5 hours with 5% (v/v) CO2 in air. After incubation, the HC was washed twice with WE medium and co-cultured with NPC of 8×10^4 cells, which were pre-treated with 5×10^−5 g/ml of astilbin or RSG ext for 5, 15, 30, 60 and 120 minutes respectively, at 37° C. for 3 hours. After co-culture, the supernatants were collected for assaying the ALT activity by the conventional methods.
HC (2×10^4 cells/0.2 ml/wells in WE medium) were seeded onto 96-well microplates and incubated at 37° C. with 5% (v/v) CO2 in air.
On the other hand, NPC was incubated in the medium with or without test compounds for 1 hour. The test compounds were smitilbin of the formula (I-a), astilbin of the formula (I-b), engeletin of the formula (I-c), and eucryphin of formula (I-d), respectively.
After 5 hours of the incubation, each monolayers of HC were washed twice with the medium, and then 8×10^4 cells of NPC, pre-treated with or without above test compounds, were added. After 3 hours of further incubation, the supernatants were collected and used for assaying the ALT activity by the conventional methods.

[4] = test system: mice with liver injury induced by delayed-type hypersensitivity (DTH) reaction; test: Studies for drug administration time (induction phase and effector phase); assay type: in vivo; conditions: for serum ALT activity: FIG. 5; for histopathological examination of liver (inflammatory infiltration, hepatocellular coagulation necrosis): 18 hours after injection of picryl chloride into liver
Protocol: The liver injury was induced by the same manner as described in Experiment 1. To determine the effects of astilbin and RSG ext on the induction phase (during sensitization) and effector phase (after elicitation of liver injury), astilbin (50 and 100 mg/kg) and RSG ext (100 and 200 mg/kg) were administered orally to the mice for once a day after 10 days from the 1st sensitization, and for 3 times at 0, 5 and 10 hours after elicitation, respectively.
For the control studies, mice without drug administration were used, and for the positive control studies, 10 mg/kg cyclophosphamide (Cy) was administered percutaneously to the mice.
18 hours after the injection of picryl chloride into liver, the blood samples were collected for determining the serum ALT activity by the conventional methods. Histopathological examination of liver was also performed.

[5] = test system: total NPC isolated from liver injury mice; test: Apoptosis measurement No. 1, counting of apoptotic cells (Hoechst 33342); assay type: cell-based; conditions: 5×10^−5 g/ml, 1 hour, 37° C., NPC from liver injury mice 12 hours after elicitation, FIG. 1
Protocol: (§1) HC and NPC isolated from liver injury mice 12 hours after elicitation, and fraction of adherent cells and non-adherent cells isolated from NPC were used. These cells were incubated with 5×10^−5 g/ml of astilbin and RSG ext, as the testing compounds, in RPMI 1640 medium at 37° C. for 1 hour, respectively. After incubation, the cells were stained with Hoechst 33342 (Molecular Probes, Inc., USA) for 1 minute at room temperature. After washed three times with RPMI 1640 medium, the obtained cells were fixed with 2% formaldehyde in phosphate buffer solution (PBS). The apoptotic cells among the total population were determined by counting a total of 200 cells in five different fields under fluorescent microscope. For the control studies, the cells treated without test compounds were incubated and followed by the same manner.

[6] = test system: NPC and spleen cells isolated from normal mice; test: Apoptosis measurement No. 2, DNA fragmentation assay (gel agarose electrophoresis); assay type: cell-based; conditions: 5×10^−5 g/ml, 1 hour
[7] = test system: NPC isolated from liver injury mice; test: as above; assay type: cell-based; conditions: 5×10^−5 g/ml, 1 hour, NPC from liver injury mice 12 hours after elicitation
[8] = test system: HC isolated from liver injury mice; test: ALT-releasing assay, co-culture of NPC with pre-treated HC; assay type: cell-based; conditions: HC pre-treated with high concentration for more than 2 hours
Protocol: HC in WE medium was incubated with or without test compounds for 1 hour. Then, the HC was seeded onto 96-well microplates (2×10^4 cells/0.2 ml/wells) and incubated at 37° C. with 5% (v/v) CO2 in air for 5 hours. After 5 hours, HC monolayers were washed twice with the medium, and then 8×10^4 cells of NPC were added. […] The test compounds were the same ones as described in Experiment 2, above.

[9] = test system: adherent cells isolated from NPC; test: Apoptosis measurement No. 1, counting of apoptotic cells (Hoechst 33342); assay type: cell-based, mice; conditions: 5×10^−5 g/ml, 1 hour, 37° C., FIG. 1
Protocol: as §1, with “Additionally, a part of NPC was incubated on the culture plate for 3 hours in order to separate adherent cells from non-adherent cells. […] HC” for “HC”

[10] = test system: non-adherent cells isolated from NPC; test: as above; assay type: cell-based, mice; conditions: 5×10^−5 g/ml, 1 hour, 37° C., FIG. 1
Protocol: as §1, with “Additionally, a part of NPC was incubated on the culture plate for 3 hours in order to separate adherent cells from non-adherent cells. […] HC” for “HC”

[11] = dose 50 mg/kg orally for 6 days
[12] = dose 100 mg/kg orally for 6 days
[13] = NPC pre-incubated 1 hour with various concentrations, co-culture with HC 3 hours, FIG. 2

SMILES: COC(=O)c1cc(OC)c2c(c1-c1c(C(=O)OC)cc(OC)c3c1OCO3)OCO2 [BDD, biphenyl dimethyl dicarboxylate, reference compound]
- ALT elevation ([1]; 150 mg/kg orally, positive control): significantly decreased
- ALT ([1]; dose 150 mg/kg orally): 510.7 ± 27.0 Karmen unit
- AST ([1]; dose 150 mg/kg orally): 675.6 ± 80.9 Karmen unit

SMILES: C[C@@H]1O[C@@H](Oc2coc3cc(O)cc(O)c3c2=O)[C@H](O)[C@H](O)[C@H]1O [eucryphin]
- ALT release from HC treated with CCl4 [2]: None of the test compounds
- ALT activity in supernatants of HC co-cultured with pre-treated NPC [3]: much stronger inhibitory effect

SMILES: O=P1(N(CCCl)CCCl)NCCCO1 (stereo not drawn) [cyclophosphamide, reference compound]
- serum ALT activity ([4]; 10 mg/kg, given in both induction and effector phases, positive control): significant decrease
- histopathological examination of liver (inflammatory infiltration, hepatocellular coagulation necrosis) [4]: improvement of liver injury

SMILES: C[C@@H]1O[C@@H](O[C@@H]2C(=O)c3c(O)cc(O)cc3OC2c2cc(O)cc(O)c2)[C@H](O)[C@H](O)[C@H]1O (stereo partly drawn) [smitilbin]
- ALT release from HC treated with CCl4 [2]: None of the test compounds
- ALT activity in supernatants of HC co-cultured with pre-treated NPC [3]: dose-dependently inhibited

SMILES: C[C@@H]1O[C@@H](O[C@H]2C(=O)c3c(O)cc(O)cc3O[C@@H]2c2ccc(O)cc2)[C@H](O)[C@H](O)[C@H]1O [engeletin]
- ALT release from HC treated with CCl4 [2]: None of the test compounds
- ALT activity in supernatants of HC co-cultured with pre-treated NPC [3]: dose-dependently inhibited

SMILES: C[C@@H]1O[C@@H](O[C@H]2C(=O)c3c(O)cc(O)cc3O[C@@H]2c2ccc(O)c(O)c2)[C@H](O)[C@H](O)[C@H]1O [astilbin]
- ratio of apoptotic cells in total NPC [5]: significantly increased
- histopathological examination of liver (inflammatory infiltration, hepatocellular coagulation necrosis) [4]: improvement of liver injury
- serum ALT activity ([4]; high dose (astilbin 100 mg/kg, RSG ext 200 mg/kg) orally in effector phase, 3 times at 0, 5 and 10 hours after elicitation, blood 18 hours after): significant decrease
- serum ALT activity ([4]; low dose (astilbin 50 mg/kg, RSG ext 100 mg/kg) orally in effector phase): tendency of decreasing
- DNA ladder pattern (DNA fragmentation) [6]: no DNA ladder' pattern appeared
- ALT release from HC treated with CCl4 [2]: None of the test compounds
- ALT release from HC treated with CCl4 ([2]; listed as Astilbin): did not affect
- effect on elevation of ALT and AST activities ([1]; astilbin 50 or 100 mg/kg, RSG ext 100 or 200 mg/kg orally for 6 days before CCl4): no effect
- ALT [1, 11]: 901.6 ± 36.1 Karmen unit
- AST [1, 11]: 670.4 ± 21.2 Karmen unit
- ALT [1, 12]: 921.5 ± 40.2 Karmen unit
- AST [1, 12]: 688.2 ± 45.6 Karmen unit
- DNA ladder pattern (DNA fragmentation) [7]: DNA ladder' pattern appeared
- ALT releasing [8]: not changed
- ratio of apoptotic cells in the fraction of adherent cells of NPC [9]: no influence
- ratio of apoptotic cells in non-adherent fraction isolated from NPC [10]: increased
- ALT release ([3]; 5×10^−5 g/ml, NPC pre-incubated 1 hour, co-culture with HC 3 hours): complete inhibition
- ALT releasing ([3]; 5×10^−5 g/ml, pre-treatment of NPC for more than 30 minutes): completely inhibited
- ALT activity in supernatants of HC co-cultured with pre-treated NPC [3]: dose-dependently inhibited
- ALT releasing activity of NPC [3, 13]: dose-dependently inhibited; also recorded: stronger activity than RSG ext
- AST releasing activity of NPC [3, 13]: dose-dependently inhibited
- releasing of ALT from HC ([3]; NPC pre-treated with 5×10^−5 g/ml for 5, 15, 30, 60 and 120 minutes, FIG. 3): inhibited time-dependently
